In the supplement of paper PMC4862054:

Legend:
Details in all cases: incubation time: 72 h
[1] = tested on: BT-474; assay: normalised response (% of control), CellTox Green; higher = less cell death (100 = DMSO, 0 = benzethonium chloride kill control)
Summary of the method: (§1)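 Each value is the plate-normalised signal at one concentration of the series. Breast cancer cell lines (20 µl suspension) were incubated 72 h in 384-well plates with compound at 5 concentrations in 10-fold steps over a compound-specific 10,000-fold range. CellTox Green and then CellTiter-Glo were read, and each plate was scaled to 0.1 % DMSO (100) and a positive kill control (0).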

[2] = tested on: HCC1143; assay: as above
Summary of the method: as §1

[3] = tested on: MFM-223; assay: as above
Summary of the method: as §1

[4] = tested on: DU-4475; assay: as above
Summary of the method: as §1

[5] = tested on: MDA-MB-436; assay: as above
Summary of the method: as §1

[6] = tested on: MDA-MB-453; assay: as above
Summary of the method: as §1

[7] = tested on: HDQ-P1; assay: as above
Summary of the method: as §1

[8] = tested on: HCC1599; assay: as above
Summary of the method: as §1

[9] = tested on: CAL-51; assay: as above
Summary of the method: as §1

[10] = tested on: BT-549; assay: as above
Summary of the method: as §1

[11] = tested on: HCC1937; assay: as above
Summary of the method: as §1

[12] = tested on: CAL-120; assay: as above
Summary of the method: as §1

[13] = tested on: MDA-MB-468; assay: as above
Summary of the method: as §1

[14] = tested on: MCF-10A; assay: as above
Summary of the method: as §1

[15] = tested on: CAL-85-1; assay: as above
Summary of the method: as §1

[16] = tested on: MDA-MB-231; assay: as above
Summary of the method: as §1

[17] = tested on: Hs578T; assay: as above
Summary of the method: as §1

[18] = tested on: CAL-148; assay: as above
Summary of the method: as §1

[19] = tested on: BT-474; assay: normalised response (% of control), CellTiter-Glo; higher = more viable cells (100 = DMSO, 0 = benzethonium chloride kill control)
Summary of the method: as §1

[20] = tested on: HCC1143; assay: as above
Summary of the method: as §1

[21] = tested on: MFM-223; assay: as above
Summary of the method: as §1

[22] = tested on: DU-4475; assay: as above
Summary of the method: as §1

[23] = tested on: MDA-MB-436; assay: as above
Summary of the method: as §1

[24] = tested on: MDA-MB-453; assay: as above
Summary of the method: as §1

[25] = tested on: HDQ-P1; assay: as above
Summary of the method: as §1

[26] = tested on: HCC1599; assay: as above
Summary of the method: as §1

[27] = tested on: CAL-51; assay: as above
Summary of the method: as §1

[28] = tested on: BT-549; assay: as above
Summary of the method: as §1

[29] = tested on: HCC1937; assay: as above
Summary of the method: as §1

[30] = tested on: CAL-120; assay: as above
Summary of the method: as §1

[31] = tested on: MDA-MB-468; assay: as above
Summary of the method: as §1

[32] = tested on: MCF-10A; assay: as above
Summary of the method: as §1

[33] = tested on: CAL-85-1; assay: as above
Summary of the method: as §1

[34] = tested on: MDA-MB-231; assay: as above
Summary of the method: as §1

[35] = tested on: Hs578T; assay: as above
Summary of the method: as §1

[36] = tested on: SK-BR-3; assay: as above
Summary of the method: as §1

[37] = tested on: CAL-148; assay: as above
Summary of the method: as §1

SMILES	normalised response [1] [%]	normalised response [2] [%]	normalised response [3] [%]	normalised response [4] [%]	normalised response [5] [%]	normalised response [6] [%]	normalised response [7] [%]	normalised response [8] [%]	normalised response [9] [%]	normalised response [10] [%]	normalised response [11] [%]	normalised response [12] [%]	normalised response [13] [%]	normalised response [14] [%]	normalised response [15] [%]	normalised response [16] [%]	normalised response [17] [%]	normalised response [18] [%]	normalised response [19] [%]	normalised response [20] [%]	normalised response [21] [%]	normalised response [22] [%]	normalised response [23] [%]	normalised response [24] [%]	normalised response [25] [%]	normalised response [26] [%]	normalised response [27] [%]	normalised response [28] [%]	normalised response [29] [%]	normalised response [30] [%]	normalised response [31] [%]	normalised response [32] [%]	normalised response [33] [%]	normalised response [34] [%]	normalised response [35] [%]	normalised response [36] [%]	normalised response [37] [%]
CC(C)(C)Cn1c(N)nc2ccc(-c3[nH]c(C(C)(C)C)nc3-c3ccc(F)cc3)nc21 (100 nM)	102	113	82.9	103	98	102	109	98.1	96.5	101	105	103	117	99.2	112	72.7	105	102	102	110	104	103	105	101	88.5	102	92.9	105	92.8	106	95.8	98.4	99.5	98.6	102	104	100
CC[C@H](CC#N)OC(=O)N[C@@H](C)c1cccc(NC(=O)Nc2ccc(-c3cnco3)c(OC)c2)c1 [AVN944] (100 nM)	73.6	76.5	93.5	97.8	90.8	70.8	83.5	93.2	95	102	83	97.7	73.7	67.8	95.9	85.2	98.7	95.8	86.2	92.2	98.2	97.1	80.1	98.2	85.8	82.8	83.9	67.8	90.2	93.8	59.9	91.9	81.9	91.3	111	96	94.8
CC(C)C[C@H](NC(=O)[C@H](CCc1ccccc1)NC(=O)CN1CCOCC1)C(=O)N[C@@H](Cc1ccccc1)C(=O)N[C@@H](CC(C)C)C(=O)[C@@]1(C)CO1 [Carfilzomib] (10 nM)	87.4	90.5	66.1	100	48.3	84.6	96.5	111	35.9	81.9	48.8	91.2	-51.7	100	43.5	51.9	69.9	78.6	70.3	44.4	8.07	102	23.4	40.7	83.5	104	60.5	6.23	77	91.6	0.56	119	37.6	78.8	63.5	19.1	104
CCc1cnn2c(NCc3ccc[n+]([O-])c3)cc(N3CCCC[C@H]3CCO)nc12 [Dinaciclib] (10 nM)	92	93.7	93.8	103	54	104	72.3	92	87.1	95	107	96.6	82.9	107	67.9	36.4	-11	93.2	67.7	68.5	85.2	89	53.5	94.8	71.2	75.8	65.7	68.7	91.2	88.1	90.3	105	24.4	28.2	79.9	37.4	101
CC(C)C(=O)Nc1ccc([N+](=O)[O-])c(C(F)(F)F)c1 [Flutamide] (100 nM)	99.8	68.4	95.8	99.3	82	104	105	96.9	111	94.1	57.6	104	124	50.2	89.6	97.2	87.2	92.5	101	103	98	104	102	109	98.5	111	113	101	94.9	98.5	94	96.8	95	102	98	95.9	100
COc1cc2c(Oc3ccc(NC(=O)C4(C(=O)Nc5ccc(F)cc5)CC4)cc3F)ccnc2cc1OCCCN1CCOCC1 [Foretinib] (10 nM)	86.5	104	97.2	102	79.1	84.9	76.9	102	109	95.3	97.2	91.5	139	107	107	102	104	105	102	99.6	103	103	104	107	96.8	112	119	105	94.7	102	104	99.5	100	97.7	99.2	104	105
COc1cc(Nc2ncc(F)c(Nc3ccc4c(n3)N(COP(=O)(O)O)C(=O)C(C)(C)O4)n2)cc(OC)c1OC [Fostamatinib] (25 nM)	98.7	100	78.7	99.6	62.8	105	104	94.1	95	60.2	102	98.4	118	80.9	106	92.3	101	99.6	97.3	101	91.2	95.6	99.7	93.7	108	96	83	104	99.5	104	94.7	100	98.5	101	93.4	91.2	88.7
CC[C@@H]1C(=O)N(C)c2cnc(Nc3ccc(C(=O)N[C@H]4CC[C@H](N5CCN(CC6CC6)CC5)CC4)cc3OC)nc2N1C(C)C [Volasertib] (10 nM)	71.2	–	1.2	95.3	19.6	92.4	87	91.3	65.5	100	53.5	91.6	34.3	–	69.5	71.8	77	86	82.6	82	54.6	100	59.5	65.4	86.3	106	84.2	89.8	83	88.5	68.3	87.9	70.4	79.9	96.3	54.8	84.4
